According to patent publication US6624317B1, “Taxoid conjugates as antimitotic and antitumor agents” (priority 2000, dated 2003):
pEC50: −log10 of the molar value. Read-outs that look alike come from different tables or passages of the source.

Key:
renal cancer (CAKI-1) = assay: in vitro cytotoxicity assay, CAKI-1; settings: read-out: Cytotoxicity (ED50) CAKI-1
Method: (§1) Biological Assay. The in vitro cytotoxicity assay was carried out according to procedures described in Rubinstein et al. (P. Ferguson et al., Cancer Res. 1988, 48, 5956-5964). […] The human tumor cell line panel consisted of epiderimoid carcinoma of the nasopharynx (KB), lung carcinoma (A-549), ileocecal carcinoma (HCT-8), renal cancer (CAKI-1), breast cancer (MCF-7), melanoma cancer (SKMEL-2), and ovarian cancer (1A9). The drug resistant cell line panel consisted of three KB-derivatives, -7d, -CPT, and -VCR. The properties of these cells are described elsewhere (P. Ferguson et al., Cancer Res. 1988, 48, 5956-5964; D. Beidler et al., Cancer Res. 1996, 56, 345-353). […] They were a generous gift of Dr. P. Giannakakou (P. Giannakakou et al., J. Biol. Chem. 1997, 27, 17118-17125). Cells were cultured at 37° C. in RPMI-1640 with 100 ug/mL kanamycin and 10% (v/v) fetal bovine serum in a humidified atmosphere containing 5% CO2. Initial seeding densities varied among the cell lines to ensure a final absorbance of 1-2.5 A562 units. Drug exposure was for 3 days, and the ED50 value, the drug concentration that reduced the absorbance by 50%, was interpolated from dose-response data.

lung carcinoma (A-549) = assay: in vitro cytotoxicity assay, A549; settings: read-out: Cytotoxicity (ED50) A549
Method: as §1

breast cancer (MCF-7) = assay: in vitro cytotoxicity assay, MCF-7; settings: read-out: Cytotoxicity (ED50) MCF-7
Method: as §1

ovarian cancer (1A9) = assay: in vitro cytotoxicity assay, 1A9; settings: read-out: Cytotoxicity (ED50) 1A9 (OVCAR)
Method: as §1

[1] = tested on: epiderimoid carcinoma of the nasopharynx (KB); assay: in vitro cytotoxicity assay, KB; format: cell-based, human; settings: drug exposure 3 days
Method: as §1

[2] = tested on: ileocecal carcinoma (HCT-8); assay: in vitro cytotoxicity assay, HCT-8; settings: read-out: Cytotoxicity (ED50) HCT-8
Method: as §1

[3] = tested on: melanoma cancer (SKMEL-2); assay: in vitro cytotoxicity assay, SK-MEL-2; settings: read-out: Cytotoxicity (ED50) SK-MEL-2
Method: as §1

PAX-10 = assay: cytotoxicity in paclitaxel-resistant 1A9 sub-line PAX-10; format: cell-based, human; settings: PAX-10 paclitaxel-resistant 1A9 sub-line
Method: as §1
(§2) The newly synthesized taxoid-4′-O-demethyl epipodophyllotoxin conjugates were evaluated in house using standard cytotoxicity assays in human tumor (HTCL) and drug-resistant (DRCL) cell lines. Reference compounds were paclitaxel (1), cephalomannine (2), and epipodophyllotoxins [etoposide (5) and GL-331 (7), see FIG. 1]. The HTCL panel was comprised of KB, A549, HCT-8, CAKI-1, MCF-7, SK-MEL-2, and 1A9 cell lines. Two paclitaxel-resistant 1A9 sub-lines designated as PAX-10 and PAX-22 were also tested as part of the DRCL panel. Other resistant-cell lines were KB derivatives expressing various mechanisms or multi-drug resistance as described elsewhere (P. Ferguson et al., Cancer Res. 1988, 48, 5956-5964; D. Beidler et al., Cancer Res. 1996, 56, 345-353).

[4] = tested on: protein-linked DNA breaks (PLDB); settings: drug treated cells; earlier work; cited from earlier work
[5] = tested on: human KB and DU-145 tumor cells in nude mice; settings: earlier work; cited from earlier work
Topoisomerase II = Topoisomerase II activity assay (inhibition of topo II in vitro); format: biochemical; settings: NA^1 not active at 50 uM, NA^2 not active at 100 uM
From the text: (§3) Protein-Linked DNA Break and Topoisomerase 11 Activity Assays. The procedures were done according to detailed published methods (K. Bastow et al., Bioorg. Med. Chem. 1997, 5, 1481-1488).

[6] = tested on: paclitaxel resistant cells; assay: cytotoxicity against paclitaxel resistant cells (overall); format: cell-based, human; settings: compared with the unconjugated components, Table 3
Method: as §1, §2

[7] = tested on: Non-small cell lung cancer cell lines; assay: NCI human tumor cell lines, NSCL; format: cell-based; settings: average over all cell lines of the tumor type; data provided by the NCI
melanoma cell lines = assay: NCI human tumor cell lines, melanoma; format: cell-based; settings: average over all cell lines of the tumor type; data provided by the NCI
[8] = tested on: human tumor (HTCL) cell lines; assay: standard cytotoxicity assays in human tumor cell lines (HTCL panel, overall); settings: summary of Table 2
Method: as §1
The newly synthesized taxoid-4′-O-demethyl epipodophyllotoxin conjugates were evaluated in house using standard cytotoxicity assays in human tumor (HTCL) and drug-resistant (DRCL) cell lines. […]

ovarian cell lines = assay: NCI human tumor cell lines, ovarian; format: cell-based; settings: average over all cell lines of the tumor type; data provided by the NCI
leukemia cell lines = assay: NCI human tumor cell lines, leukemia; format: cell-based; settings: average over all cell lines of the tumor type; data provided by the NCI
Colon cell lines = assay: NCI human tumor cell lines, colon; format: cell-based; settings: average over all cell lines of the tumor type; data provided by the NCI
[9] = tested on: Cellular protein-DNA complex formation; assay: Protein-linked DNA break assay (cellular protein-DNA complex formation); format: cell-based; settings: for Cellular protein-DNA complex formation: Etoposide given as 100, NA^1 not active at 50 uM, NA^2 not active at 100 uM
From the text: as §3

[10] = tested on: Central nervous system cancer cell lines; assay: NCI human tumor cell lines, CNS; format: cell-based; settings: average over all cell lines of the tumor type; data provided by the NCI
KB-CPT = assay: cytotoxicity in drug resistant cell line KB-CPT; format: cell-based, human; settings: KB-CPT drug resistant KB derivative
Method: as §1, §2

prostate cell lines = assay: NCI human tumor cell lines, prostate; format: cell-based; settings: average over all cell lines of the tumor type; data provided by the NCI
PAX-22 = assay: cytotoxicity in paclitaxel-resistant 1A9 sub-line PAX-22; format: cell-based, human; settings: PAX-22 paclitaxel-resistant 1A9 sub-line
Method: as §1, §2

KB-7d = assay: cytotoxicity in drug resistant cell line KB-7d; format: cell-based, human; settings: KB-7d drug resistant KB derivative
Method: as §1, §2

KB-VCR = assay: cytotoxicity in drug resistant cell line KB-VCR; format: cell-based, human; settings: KB-VCR drug resistant KB derivative
Method: as §1, §2

[11] = A549, drug exposure 3 days, NA = not active
[12] = 1A9 (OVCAR), drug exposure 3 days
[13] = HCT-8, drug exposure 3 days, NA = not active
[14] = SK-MEL-2, drug exposure 3 days, NA = not active

| Compound | pEC50 (lung carcinoma (A-549); Homo sapiens, A549, 72 h) | pEC50 (ovarian cancer (1A9); Homo sapiens, 72 h) | Cytotoxicity (ED50) KB [1] | pEC50 ([2]; Homo sapiens, HCT-8, 72 h) | Resistance Fold PAX-10 (PAX-10) | pEC50 (renal cancer (CAKI-1); CAKI-1, drug exposure 3 days) | pEC50 (lung carcinoma (A-549); [11]) | pEC50 (breast cancer (MCF-7); MCF-7, drug exposure 3 days) | pEC50 (ovarian cancer (1A9); [12]) | pEC50 [2, 13] | pEC50 [3, 14] | Inhibition of Topo II IC100 (Topoisomerase II) | Cellular protein-DNA complex formation [9] | Resistance Fold KB-CPT (KB-CPT) | Resistance Fold PAX-22 (PAX-22) | Resistance Fold KB-7d (KB-7d) | Resistance Fold KB-VCR (KB-VCR) | further results |
| --- | --- | --- | --- | --- | --- | --- | --- | --- | --- | --- | --- | --- | --- | --- | --- | --- | --- | --- |
| C/C=C(\C)C(=O)N[C@@H](c1ccccc1)[C@@H](O)C(=O)O[C@H]1C[C@@]2(O)[C@@H](OC(=O)c3ccccc3)[C@@H]3[C@]4(OC(C)=O)CO[C@@H]4C[C@H](O)[C@@]3(C)C(=O)[C@H](OC(C)=O)C(=C1C)C2(C)C [Cephalomannine, cephalomannine, reference compound] | 8.05 | 8.52 | 2 nM | 7.33 | 40 | – | – | – | – | – | – | – | – | – | – | – | – | pEC50 (renal cancer (CAKI-1); Homo sapiens, CAKI-1, 72 h): < 6.52; pEC50 (breast cancer (MCF-7); Homo sapiens, MCF7, 72 h): 6.78; pEC50 ([3]; Homo sapiens, SK-MEL-2, 72 h): 6.87 |
| CC[C@@]1(O)C(=O)OCc2c1cc1n(c2=O)Cc2c-1nc1ccccc1c2C=Nc1ccc(N[C@@H]2c3cc4c(cc3[C@@H](c3cc(OC)c(O)c(OC)c3)[C@H]3C(=O)OC[C@@H]32)OCO4)cc1 [Compound 3] | – | – | – | – | – | – | – | – | – | – | – | – | – | – | – | – | – | induction of protein-linked DNA breaks (PLDB) (in words) [4]: induced protein-linked DNA breaks (PLDB) in a concentration dependent manner; in vivo antitumor activity (in words) [5]: more active than either etoposide or CPT |
| CC[C@@]1(O)C(=O)OCc2c1cc1n(c2=O)Cc2c-1nc1ccccc1c2C=Nc1ccccc1N[C@@H]1c2cc3c(cc2[C@@H](c2cc(OC)c(O)c(OC)c2)[C@H]2C(=O)OC[C@@H]21)OCO3 [Compound 4] | – | – | – | – | – | – | – | – | – | – | – | – | – | – | – | – | – | induction of protein-linked DNA breaks (PLDB) (in words) [4]: induced protein-linked DNA breaks (PLDB) in a concentration dependent manner |
| C/C=C(\C)C(=O)N[C@@H](c1ccccc1)[C@@H](OC(=O)c1ccc(C=N[C@@H]2c3cc4c(cc3[C@@H](c3cc(OC)c(O)c(OC)c3)[C@H]3C(=O)OC[C@@H]32)OCO4)cc1)C(=O)O[C@H]1C[C@@]2(O)[C@@H](OC(=O)c3ccccc3)[C@@H]3[C@]4(OC(C)=O)CO[C@@H]4C[C@H](O)[C@@]3(C)C(=O)[C@H](OC(C)=O)C(=C1C)C2(C)C [Compound 14] | – | – | 30 nM | – | >36 | < 5.30 | 6.15 | 5.91 | 6.85 | 5.56 | 5.05 | – | – | – | – | – | – | – |
| COc1cc([C@@H]2c3cc4c(cc3[C@@H](Nc3ccc(N=Cc5ccc(C(=O)O[C@@H](C(=O)O[C@H]6C[C@@]7(O)[C@@H](OC(=O)c8ccccc8)[C@@H]8[C@]9(OC(C)=O)CO[C@@H]9C[C@H](O)[C@@]8(C)C(=O)[C@H](OC(C)=O)C(=C6C)C7(C)C)[C@@H](NC(=O)c6ccccc6)c6ccccc6)cc5)cc3)[C@H]3COC(=O)[C@H]23)OCO4)cc(OC)c1O [Compound 15] | – | – | 230 nM | – | >17 | < 5.40 | 5.55 | 5.73 | 6.52 | < 7.00 | < 4.40 | 100 µM | 25 +/− 11% | 1 | 8 | 1 | 8 | activity against paclitaxel resistant cells (in words) [6]: enhanced activity against paclitaxel resistant cells; log GI50 NSCL [7]: −5.50; log GI50 melanoma (melanoma cell lines): −5.01; cytotoxicity in human tumor cell lines (in words) [8]: exhibited different cytotoxic activity from both precursors; log GI50 ovarian (ovarian cell lines): −4.95; log GI50 leukemia (leukemia cell lines): −6.02; log GI50 Colon (Colon cell lines): −5.12; intracellular poisoning / stimulation of protein-DNA breaks in cells (in words) ([9]; in cells): intracellular poisons; log GI50 CNS [10]: −5.54; log GI50 prostate (prostate cell lines): −5.06 |
| C/C=C(\C)C(=O)N[C@@H](c1ccccc1)[C@@H](OC(=O)c1ccc(C=Nc2ccc(N[C@@H]3c4cc5c(cc4[C@@H](c4cc(OC)c(O)c(OC)c4)[C@H]4C(=O)OC[C@@H]43)OCO5)cc2)cc1)C(=O)O[C@H]1C[C@@]2(O)[C@@H](OC(=O)c3ccccc3)[C@@H]3[C@]4(OC(C)=O)CO[C@@H]4C[C@H](O)[C@@]3(C)C(=O)[C@H](OC(C)=O)C(=C1C)C2(C)C [Compound 16] | – | – | 1400 nM | – | 7.5 | < 5.00 | 5.45 | < 5.30 | 5.95 | < 4.40 | < 4.40 | – | – | – | – | – | – | activity against paclitaxel resistant cells (in words) [6]: enhanced activity against paclitaxel resistant cells |
| COc1cc([C@@H]2c3cc4c(cc3[C@@H](O[C@@H]3O[C@@H]5CO[C@@H](C)O[C@H]5[C@H](O)[C@H]3O)[C@H]3COC(=O)[C@H]23)OCO4)cc(OC)c1O [Etoposide, etoposide, reference compound] | 5.71 | 6.22 | 200 nM | < 5.30 | >16 | – | – | – | – | – | – | 100 µM | 100% | 1 | >16 | 119 | 153 | pEC50 (renal cancer (CAKI-1); Homo sapiens, CAKI-1, 72 h): 5.66; pEC50 (breast cancer (MCF-7); Homo sapiens, MCF7, 72 h): < 5.30 |
| COc1cc([C@@H]2c3cc4c(cc3[C@@H](Nc3ccc([N+](=O)[O-])cc3)[C@H]3COC(=O)[C@H]23)OCO4)cc(OC)c1O [GL-331, reference compound] | – | – | 1860 nM | – | 13 | 5.74 | 6.32 | 5.03 | 6.70 | 5.47 | 5.23 | 50 µM | 134 +/− 7% | 1 | 8 | 2 | 3 | – |
| CC(=O)O[C@H]1C(=O)[C@@]2(C)[C@H]([C@H](OC(=O)c3ccccc3)[C@]3(O)C[C@H](OC(=O)[C@H](O)[C@@H](NC(=O)c4ccccc4)c4ccccc4)C(C)=C1C3(C)C)[C@]1(OC(C)=O)CO[C@@H]1C[C@@H]2O [Paclitaxel, paclitaxel, reference compound] | 8.22 | 8.70 | 16 nM | 7.89 | 24 | – | – | – | – | – | – | – | – | 1 | 24 | 1 | 15 | – |
